Laboratory results published in patent publication US9296693B2, “Acyl piperidine inhibitors of soluble epoxide hydrolase” (The Regents of the University of California, priority 2010, dated 2016).
Values joined by “and” are separate entries in the source; they are usually repeats but may differ in a detail not shown here. Equal values may be shown once. Read-outs that look alike come from different tables or passages of the source.

How the values were obtained:
Human sEH = Human sEH (Homo sapiens (Human), UniProt P34913); test: fluorescent based IC50 assay (CMNPC substrate), recombinant human sEH;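 note: enzyme preincubated with inhibitor for 5 min before adding substrate, in 25 mM Bis-Tris/HCl buffer supplemented with 0.1 mg/mL BSA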
Sequence of Human sEH (P34913 whole entry): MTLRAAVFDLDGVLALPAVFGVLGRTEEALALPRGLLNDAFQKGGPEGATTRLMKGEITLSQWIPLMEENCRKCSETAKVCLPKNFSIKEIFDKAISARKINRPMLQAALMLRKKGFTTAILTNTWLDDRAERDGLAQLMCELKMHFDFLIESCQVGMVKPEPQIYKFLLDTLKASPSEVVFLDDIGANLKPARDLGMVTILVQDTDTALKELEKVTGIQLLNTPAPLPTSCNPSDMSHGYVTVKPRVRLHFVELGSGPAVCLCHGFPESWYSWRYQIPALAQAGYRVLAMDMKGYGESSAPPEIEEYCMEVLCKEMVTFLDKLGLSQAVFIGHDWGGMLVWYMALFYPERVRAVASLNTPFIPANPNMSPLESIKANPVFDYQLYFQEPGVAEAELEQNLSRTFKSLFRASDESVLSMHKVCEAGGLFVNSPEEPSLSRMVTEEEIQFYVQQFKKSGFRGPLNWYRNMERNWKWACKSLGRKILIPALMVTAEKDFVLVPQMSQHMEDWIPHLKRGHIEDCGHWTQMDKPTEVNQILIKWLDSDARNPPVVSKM

murine sEH = murine sEH (Mus musculus (Mouse), UniProt P34914); test: fluorescent based IC50 assay (CMNPC substrate), recombinant murine sEH; type: biochemical; details: homogenous recombinant murine sEH 1 nM, CMNPC 5 μM, pH 7.0, 30° C., average of three replicates
Sequence of murine sEH (P34914 whole entry): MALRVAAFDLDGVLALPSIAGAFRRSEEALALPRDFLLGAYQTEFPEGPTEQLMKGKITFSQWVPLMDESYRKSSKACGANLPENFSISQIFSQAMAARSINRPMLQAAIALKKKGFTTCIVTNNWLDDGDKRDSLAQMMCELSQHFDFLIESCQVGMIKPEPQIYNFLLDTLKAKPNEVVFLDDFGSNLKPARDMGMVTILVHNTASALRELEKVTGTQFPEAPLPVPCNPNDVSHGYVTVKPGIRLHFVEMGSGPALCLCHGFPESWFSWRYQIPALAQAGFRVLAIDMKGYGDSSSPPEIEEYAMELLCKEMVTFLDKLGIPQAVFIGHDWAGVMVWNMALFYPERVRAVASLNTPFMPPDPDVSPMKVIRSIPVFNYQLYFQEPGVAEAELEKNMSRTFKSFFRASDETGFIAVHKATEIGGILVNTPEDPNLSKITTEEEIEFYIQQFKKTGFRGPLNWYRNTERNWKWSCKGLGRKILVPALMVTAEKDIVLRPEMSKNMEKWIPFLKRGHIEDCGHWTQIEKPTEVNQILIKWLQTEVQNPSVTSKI

[1] = Pharmacokinetic screening of selected haloalkyl-phenyl ureas, blood profiles; type: in vivo; details: whole blood
[2] = read-out: IC50 (nM) Human, homogenous recombinant human sEH 1 nM, CMNPC 5 μM, pH 7.0, 30° C., average of three replicates

| SMILES | IC50 (Human sEH; [2]) [nM] | IC50 (murine sEH) | other results |
| --- | --- | --- | --- |
| CCCCS(=O)(=O)N1CCC(NC(=O)Nc2ccc(C(F)(F)F)cc2)CC1 [Compound 69, 1-(1-(butylsulfonyl)piperidin-4-yl)-3-(4-(trifluoromethyl)phenyl)urea] | – | – | AUC [1]: 15.5 µM·h; Cmax [1]: 1.7 µM; Tmax [1]: 1 h; half-life [1]: 4.5 h |
| CCC(=O)N1CCC(NC(=O)Nc2c(Cl)cccc2Cl)CC1 [Compound 34, 1-(2,6-Dichlorophenyl)-3-(1-propionylpiperidin-4-yl)urea] | > 50000 | > 5000 nM and 38000 nM | IC50 (Human sEH): > 5000 nM |
| CCC(=O)N1CCC(NC(=O)Nc2ccccc2Cl)CC1 [Compound 31, 1-(2-Chlorophenyl)-3-(1-propionylpiperidin-4-yl)urea] | 1100 | 2900 nM | – |
| CCC(C)C(=O)N1CCC(NC(=O)Nc2ccc(C(F)(F)F)cc2)CC1 (stereo not drawn) [Compound 64, 1-(1-(2-methylbutyryl)piperidin-4-yl)-3-(4-(trifluoromethyl)phenyl)urea] | – | – | AUC [1]: 3.9 µM·h; Cmax [1]: 4 µM; Tmax [1]: 4 h; half-life [1]: 2.5 h |
| CCC(=O)N1CCC(NC(=O)Nc2ccccc2)CC1 [Compound 7, 1-Phenyl-3-(1-propionylpiperidin-4-yl)urea] | 130 | 49 nM | – |
| CCC(=O)N1CCC(NC(=O)Nc2ccc(O)cc2)CC1 [Compound 23, 1-(4-Hydroxyphenyl)-3-(1-propionylpiperidin-4-yl)urea] | – | 1400 nM | – |
| CCC(=O)N1CCC(NC(=O)Nc2ccc([N+](=O)[O-])cc2)CC1 [Compound 20, 1-(4-Nitrophenyl)-3-(1-propionylpiperidin-4-yl)urea] | – | 97 nM | – |
| CS(=O)(=O)N1CCC(NC(=O)Nc2ccc(OC(F)(F)F)cc2)CC1 [Compound 55, 1-(1-(Methylsulfonyl)piperidin-4-yl)-3-(4-(trifluoromethoxy)phenyl)urea] | 2.9 | 2 nM | – |
| CCC(=O)N1CCC(NC(=O)Nc2ccc(Br)cc2)CC1 [Compound 26, 1-(4-Bromophenyl)-3-(1-propionylpiperidin-4-yl)urea] | 3.6 | 15 nM | – |
| CCC(=O)N1CCC(NC(=O)Nc2cccc(C(F)(F)F)c2)CC1 [Compound 37, 1-(1-Propionylpiperidin-4-yl)-3-(3-(trifluoromethyl)phenyl)urea] | 17 | 8.8 nM | – |
| CCC(=O)N1CCC(NC(=O)Nc2cccc(F)c2)CC1 [Compound 28, 1-(3-Fluorophenyl)-3-(1-propionylpiperidin-4-yl)urea] | 39 | 20 nM | – |
| CCC(=O)N1CCC(NC(=O)Nc2ccc(C(F)(C(F)(F)F)C(F)(F)F)cc2C)CC1 [Compound 39, 1-(2-Methyl-4-perfluoroisopropylphenyl)-3-(1-propionylpiperidin-4-yl)urea] | 17 | 28 nM | – |
| CCC(=O)N1CCC(NC(=O)Nc2cccc(C)c2)CC1 [Compound 11] | 40 | 8.7 nM | – |
| CCC(=O)N1CCC(NC(=O)Nc2cc(OC)c(OC)c(OC)c2)CC1 [Compound 18, 1-(1-Propionylpiperidin-4-yl)-3-(3,4,5-trimethoxyphenyl)urea] | > 5000 | > 5000 nM and 25000 nM | – |
| CCC(=O)N1CCC(NC(=O)Nc2ccc(C(=O)O)cc2)CC1 [Compound 22, 4-(3-(1-Propionylpiperidin-4-yl)ureido)benzoic acid] | 330 | 1000 nM | – |
| CCC(=O)N1CCC(NC(=O)Nc2ccccc2C)CC1 [Compound 10, 1-(1-Propionylpiperidin-4-yl)-3-o-tolylurea] | 1700 | > 5000 nM and 5100 nM | – |
| CCC(=O)N1CCC(NC(=O)Nc2ccc(Cl)cc2)CC1 [Compound 25, 1-(4-Chlorophenyl)-3-(1-propionylpiperidin-4-yl)urea] | 10 | 23 nM | – |
| CCC(=O)N1CCC(NC(=O)Nc2ccccc2F)CC1 [Compound 29, 1-(2-Fluorophenyl)-3-(1-propionylpiperidin-4-yl)urea] | 300 | 780 nM | – |
| CCC(=O)N1CCC(NC(=O)Nc2ccc(N3CCOCC3)cc2)CC1 [Compound 19, 1-(4-Morpholinophenyl)-3-(1-propionylpiperidin-4-yl)urea] | 2000 | 650 nM | – |

More lines, in order of falling IC50 (murine sEH), values ahead:

| IC50 (Human sEH; [2]) [nM] | IC50 (murine sEH) | SMILES | other results |
| --- | --- | --- | --- |
| 87 | 8.7 nM | CCC(=O)N1CCC(NC(=O)Nc2ccc(OC)cc2)CC1 [Compound 15, 1-(4-Methoxyphenyl)-3-(1-propionylpiperidin-4-yl)urea] | – |
| 21 | 6.6 nM | CCC(=O)N1CCC(NC(=O)Nc2cccc(Cl)c2)CC1 [Compound 30, 1-(3-Chlorophenyl)-3-(1-propionylpiperidin-4-yl)urea] | – |
| – | 6.5 nM | CCC(=O)N1CCC(NC(=O)Nc2ccc(C(F)(F)F)cc2)CC1 [Compound 36, 1-(1-Propionylpiperidin-4-yl)-3-(4-(trifluoromethyl)phenyl)urea] | – |
| 3.1 | 5 nM | O=C(Nc1ccc(OC(F)(F)F)cc1)NC1CCN(C(=O)Cc2ccccn2)CC1 [Compound 49, 1-(((Pyridin-2-yl)acetyl)piperidin-4-yl)-3-(4-(trifluoromethoxy)phenyl) urea] | – |
| 3 | 4.2 nM | CCC(=O)N1CCC(NC(=O)Nc2ccc3ccccc3c2)CC1 [Compound 8, 1-(Naphthalen-2-yl)-3-(1-propionylpiperidin-4-yl)urea] | – |
| 12 | 3.5 nM | CCC(=O)N1CCC(NC(=O)NC2CCCCC2)CC1 [Compound 4, 1-Cyclohexyl-3-(1-propionylpiperidin-4-yl)urea] | – |
| 2.8 | 3.3 nM | CCC(=O)N1CCC(NC(=O)Nc2ccc(C(C)C)cc2)CC1 [Compound 14, 1-(4-Isopropylphenyl)-3-(1-propionylpiperidin-4-yl)urea] | – |
| 4.1 | 2.3 nM | CCC(=O)N1CCC(NC(=O)Nc2ccc(Cl)c(C(F)(F)F)c2)CC1 [Compound 35, 1-(4-Chloro-3-(trifluoromethyl)phenyl)-3-(1-propionylpiperidin-4-yl)urea] | – |
| 7.2 | 1.4 nM | CCC(=O)N1CCC(NC(=O)Nc2ccc(I)cc2)CC1 [Compound 27, 1-(4-Iodophenyl)-3-(1-propionylpiperidin-4-yl)urea] | – |
| 0.7 | 1.3 nM | O=C(Nc1ccc(OC(F)(F)F)cc1)NC1CCN(C(=O)c2ccncc2)CC1 [Compound 47, 1-(1-Isonicotinoylpiperidin-4-yl)-3-(4-(trifluoromethoxy)phenyl)urea] | – |
| 8.3 | 1.3 nM | CCC(=O)N1CCC(NC(=O)Nc2ccc(CC)cc2)CC1 [Compound 13, 1-(4-Ethylphenyl)-3-(1-propionylpiperidin-4-yl)urea] | – |
| 0.5 | 1.2 nM | CC(=O)N1CCN(CC(=O)N2CCC(NC(=O)Nc3ccc(OC(F)(F)F)cc3)CC2)CC1 [Compound 51, 1-(1-((4-Acetylpiperazin-1-yl)acetyl)piperidin-4-yl)-3-(4-(trifluoromethoxy)phenyl)urea] | – |
| 2.8 | 1.2 nM | CCC(=O)N1CCC(NC(=O)NC23CC4CC(CC(C4)C2)C3)CC1 [Compound 2, 1-(1-Adamantyl)-3-(1-propionylpiperidin-4-yl)urea] | – |
| 0.4 | 1 nM | CCC(=O)N1CCC(NC(=O)Nc2cc(Cl)cc(Cl)c2)CC1 [Compound 33, 1-(3,5-Dichlorophenyl)-3-(1-propionylpiperidin-4-yl)urea] | – |
| 3.9 | 0.9 nM | CCC(=O)N1CCC(NC(=O)NC2CCCCCC2)CC1 [Compound 3, 1-Cycloheptyl-3-(1-propionylpiperidin-4-yl)urea] | – |
| 0.4 | 0.7 nM | CCS(=O)(=O)N1CCC(NC(=O)Nc2ccc(OC(F)(F)F)cc2)CC1 [Compound 56, 1-(1-(Ethylsulfonyl)piperidin-4-yl)-3-(4-(trifluoromethoxy)phenyl)urea] | – |
| 0.6 | 0.7 nM | O=C(Nc1ccc(OC(F)(F)F)cc1)NC1CCN(C(=O)c2ccc(Cl)nc2)CC1 [Compound 48, 1-(1-(6-Chloronicotinoyl)piperidin-4-yl)-3-(4-(trifluoromethoxy)phenyl) urea] | – |
| 0.4 | 0.7 nM | CCC(=O)N1CCC(NC(=O)Nc2ccc(C(F)(C(F)(F)F)C(F)(F)F)cc2)CC1 [Compound 38, 1-(4-Perfluoroisopropylphenyl)-3-(1-propionylpiperidin-4-yl)urea] | – |
| 3.4 | 0.6 nM | CCC(=O)N1CCC(NC(=O)Nc2ccc(Cl)c(Cl)c2)CC1 [Compound 32, 1-(3,4-Dichlorophenyl)-3-(1-propionylpiperidin-4-yl)urea] | – |
| 1.8 | 0.4 nM | O=C(Nc1ccc(OC(F)(F)F)cc1)NC1CCN(S(=O)(=O)c2ccccc2)CC1 [Compound 57, 1-(1-(Phenylsulfonyl)piperidin-4-yl)-3-(4-(trifluoromethoxy)phenyl)urea] | – |
| – | 0.4 nM | O=C(Nc1ccc(OC(F)(F)F)cc1)NC1CCN(C(=O)C(F)(F)F)CC1 [Compound 53, 1-(1-(Trifluoroacetyl)piperidin-4-yl)-3-(4-(trifluoromethoxy)phenyl) urea] | – |
| 3.2 | 0.4 nM | CCCCCCCCNC(=O)NC1CCN(C(=O)CC)CC1 [Compound 5, 1-Octyl-3-(1-propionylpiperidin-4-yl)urea] | – |
| – | 0.4 nM | O=C(Nc1ccc(OC(F)(F)F)cc1)NC1CCN(C(=O)C2CC2)CC1 [Compound 52, 1-(1-(Cyclopropanecarbonyl)piperidin-4-yl)-3-(4-(trifluoromethoxy)phenyl) urea] | – |
| – | 0.4 nM | Cc1ccc(S(=O)(=O)N2CCC(NC(=O)Nc3ccc(OC(F)(F)F)cc3)CC2)cc1 [Compound 58, 1-(1-Tosylpiperidin-4-yl)-3-(4-(trifluoromethoxy)phenyl)urea] | – |
| 3.5 | 0.4 nM | CCC(=O)N1CCC(NC(=O)Nc2ccc(Oc3ccccc3)cc2)CC1 [Compound 16, 1-(4-Phenoxyphenyl)-3-(1-propionylpiperidin-4-yl)urea] | – |
